# Experimental data as given in patent publication US20240190868A1, “SOS1 INHIBITORS” (Acerand Therapeutics (USA) Limited, priority 2022, published 2024).
# System: cellular pERK in NCI-H1975 cells (EGFR/L858R-T790M)
# Test: pERK potency assay (In Cell ELISA)
# Format: cell-based
# Conditions: Homo sapiens, 1 h compound incubation
# Text: The assay measures the ability of a compound to inhibit SOS1 function in cells. SOS1 activates RAS proteins by catalyzing the conversion of RAS GDP to RAS GTP in response to receptor tyrosine kinase activation. Activation of RAS induces a sequence of cellular signaling events that result in increased phosphorylation of ERK at Threonine 202 and Tyrosine 204 (pERK). The procedure (i.e., In Cell ELISA as described below) measures the level of cellular pERK in response to a test compound in NCI-H1975 cells (EGFR/L858R-T790M).
# First, NCI-H1975 cells were grown and maintained using media and procedures recommended by the ATCC. A day before compound addition, cells were plated in poly-D-lysine coated 96-well cell culture plates (Corning® BioCoat® Cat #356640) at 25000 cells/well/100 μL and grown overnight in an incubator at 37° C. with 5% CO2. A solution of a test compound was prepared with 3-fold serial dilutions in DMSO having a top concentration of 6 mM. On the day of the assay, 50 μL of a test compound dilution in media was added to each well of cell culture plate with a final compound concentration in the range of 0.001 μM to 20 μM. After addition of the compound, cells were incubated for 1 h at 37° C. with 5% CO2, after which the culture medium was removed. Cells were fixed with 4% formaldehyde in phosphate-buffered saline (PBS) and incubated at RT for 20 min. The plate was washed three times with PBST (PBS with 0.05% Tween®-20), followed by incubation with 100 μL of pre-cooled methanol at −20° C. for 20 min. After incubation, methanol was removed. The plate was again washed with PBST. Cells were then permeabilized with 100 μL/well of 0.1% Triton X-100 in PBS at RT for 20 min and then quenched with a quenching buffer (PBST containing 1% H2O2 and 0.1% sodium azide) for 20 min at RT with gentle shaking. After washing once with PBST, a blocking buffer (250 uL/well, Pierce™ Protein-Free-PBS Blocking Buffer, Cat #37572) was then added to the cells for 1-h incubation at RT, followed by an anti-pERK antibody (cell signaling, 1:1000 dilution in 5% BSA in PBST) incubation overnight at 4° C. and a secondary antibody-HRP (Jackson immunoresearch, 1:3000 dilution in 5% BSA in PBST) incubation at RT for 1 h. PBST wash was carried out after each step three times. Before the addition of a substrate (Advansta ELISABright™), the plate was washed with PBS twice to remove detergent residues. The Cellular pERK level was determined using the microplate reader (Biotek Synergy™ H1) to detect the chemiluminescence signal. IC50 was determined by fitting a 4-parameter sigmoidal concentration-response model.
row,Compound,IC50
1,C#C[C@@H](/N=c1\nc(C)n(C)c2cnc(C3=CCN(C(C)=O)CC3)cc12)c1cccc(C(F)(F)F)c1C [Compound 11],< 100 nM
2,"CC(=O)N1CC=C(c2cc3/c(=N/[C@H](C)c4cccc(C(F)F)c4F)nc(C)n(C)c3cn2)CC1 [Compound 4, (R,Z)-1-(4-(4-((1-(3-(difluoromethyl)-2-fluorophenyl)ethyl)imino)-1,2-dimethyl-1,4-dihydropyrido[3,4-d]pyrimidin-6-yl)-3,6-dihydropyridin-1(2H)-yl)ethan-1-one]",< 100 nM
3,CC(=O)N1CC=C(c2cc3/c(=N/[C@H](C)c4cccc(C(F)(F)F)c4C)nc(C)n(C(C)C)c3cn2)CC1 [Compound 9],< 100 nM
4,CC(=O)N1CC=C(c2cc3/c(=N/[C@H](C)c4cccc(C#N)c4C)nc(C)n(C)c3cn2)CC1 [Compound 7],< 100 nM
5,"COc1nc(C2(O)CCN(C(C)=O)CC2)cc2/c(=N/[C@H](C)c3cccc(C(F)(F)F)c3C)ncn(C)c12 [Compound 22, (R,Z)-1-(4-hydroxy-4-(8-methoxy-1-methyl-4-((1-(2-methyl-3-(trifluoromethyl)phenyl)ethyl)imino)-1,4-dihydropyrido[3,4-d]pyrimidin-6-yl)piperidin-1-yl)ethan-1-one]",< 100 nM
6,CC(=O)N1CCC(F)(c2cc3/c(=N/[C@H](C)c4cccc(C#N)c4C)nc4n(c3cn2)CCC4)CC1 [Compound 30],< 100 nM
7,"CC(=O)N1CCC(O)(c2cc3/c(=N/[C@H](C)c4cccc(C(F)(F)F)c4C)nc4n(c3cn2)CCC4)CC1 [Compound 26, (R,Z)-1-(4-hydroxy-4-(5-((1-(2-methyl-3-(trifluoromethyl)phenyl)ethyl)-imino)-5,7,8,9-tetrahydropyrido[4,3-e]pyrrolo[1,2-a]pyrimidin-3-yl)piperidin-1-yl)ethan-1-one]",< 100 nM

# Next, values leading:
row,IC50,Compound
1,< 100 nM,"CC(=O)N1CCN(C(=O)c2cc3/c(=N/[C@H](C)c4cccc(C(F)F)c4F)nc(C)n(C)c3cn2)CC1 [Compound 89, (R,Z)-1-(4-(4-((1-(3-(difluoromethyl)-2-fluorophenyl)ethyl)imino)-1,2-dimethyl-1,4-dihydropyrido[3,4-d]pyrimidine-6-carbonyl)piperazin-1-yl)ethan-1-one]"
2,< 100 nM,"Cc1c([C@@H](C)/N=c2\nc3n(c4cnc(C5(C(F)F)CC5)cc24)CCC3)cccc1C(F)(F)F [Compound 31, (R,Z)-3-(1-(difluoromethyl)cyclopropyl)-N-(1-(2-methyl-3-(trifluoromethyl)phenyl)ethyl)-8,9-dihydropyrido[4,3-e]pyrrolo[1,2-a]pyrimidin-5(7H)-imine]"
3,< 100 nM,Cc1c([C@@H](C)/N=c2\nc(C)n(C3CC3)c3cnc(N4CCOCC4)cc23)cccc1C(F)(F)F [Compound 79]
4,< 100 nM,"Cc1c([C@@H](C)/N=c2\nc(C)n(C)c3cnc(N4CCn5c(C(F)F)cnc5C4)cc23)cccc1C(F)(F)F [Compound 80, (R,Z)-6-(3-(difluoromethyl)-5,6-dihydroimidazo[1,2-a]pyrazin-7(8H)-yl)-1,2-dimethyl-N-(1-(2-methyl-3-(trifluoromethyl)phenyl)ethyl)pyrido[3,4-d]pyrimidin-4(1H)-imine]"
5,< 100 nM,"Cc1c([C@@H](C)/N=c2\nc(C)n(C)c3cnc(-c4ccn5c(C(F)(F)F)ncc5c4)cc23)cccc1C(F)(F)F [Compound 47, (R,Z)-1,2-dimethyl-N-(1-(2-methyl-3-(trifluoromethyl)phenyl)ethyl)-6-(3-(trifluoromethyl)imidazo[1,5-a]pyridin-7-yl)pyrido[3,4-d]pyrimidin-4(1H)-imine]"
6,< 100 nM,"CC(=O)N1CC=C(c2cc3/c(=N/[C@H](C)c4cccc(C(F)(F)F)c4C)ncn(C)c3c(=O)n2C)CC1 [Compound 82, (R,Z)-6-(1-acetyl-1,2,3,6-tetrahydropyridin-4-yl)-1,7-dimethyl-4-((1-(2-methyl-3-(trifluoromethyl)phenyl)ethyl)imino)-1,7-dihydropyrido[3,4-d]pyrimidin-8(4H)-one]"
7,< 100 nM,Cc1c([C@@H](C)/N=c2\nc(C)n(C)c3cnc(N4CCC(F)(F)C4)cc23)cccc1C(F)(F)F [Compound 62]
8,< 100 nM,"Cc1c([C@@H](C)/N=c2\nc(C)n(C)c3cnc(N4CCC(F)(F)CC4)cc23)cccc1C(F)(F)F [Compound 48, (R,Z)-6-(4,4-difluoropiperidin-1-yl)-1,2-dimethyl-N-(1-(2-methyl-3-(trifluoromethyl)phenyl)ethyl)pyrido[3,4-d]pyrimidin-4(1H)-imine]"
9,< 100 nM,"Cc1c([C@@H](C)/N=c2\nc(C)n(C)c3cnc(C4=CCN(S(C)(=O)=O)CC4)cc23)cccc1C(F)(F)F [Compound 42, (R,Z)-1,2-dimethyl-N-(1-(2-methyl-3-(trifluoromethyl)phenyl)ethyl)-6-(1-(methylsulfonyl)-1,2,3,6-tetrahydropyridin-4-yl)pyrido[3,4-d]pyrimidin-4(1H)-imine]"
10,< 100 nM,Cc1c([C@@H](C)/N=c2\nc(C)n(C)c3cnc(N4CCOCC4)cc23)cccc1C(F)(F)F [Compound 55]
